Experimental data from patent US20030212084A1, “Naphthrydine compounds and their azaisosteric analogues as antibacterials” (priority 1998, published 2003).
Converted amounts (≈) assume the structure as drawn.

Columns and labels:
Assay type in all cases: cell-based
some of these organisms = test: MIC against various organisms (unspecified subset); conditions: against some of these organisms (those of the table)
Method: (§1) The MIC (μg/ml) of compounds 1 and 2 against various organisms was determined.

S. aureus WCUH29 = test: MIC against S. aureus WCUH29; conditions: Staphylococcus aureus
Method: as §1

M. catarrhalis Ravasio = test: MIC against M. catarrhalis Ravasio; conditions: Moraxella catarrhalis
Method: as §1

S. aureus Carter 37 = test: MIC against S. aureus Carter 37; conditions: Staphylococcus aureus, CARTER37
Method: as §1

E. faecalis I = test: MIC against E. faecalis I; conditions: Enterococcus faecalis
Method: as §1

S. aureus Oxford = test: MIC against S. aureus Oxford; conditions: Staphylococcus aureus
Method: as §1

S. pneumoniae R6 = test: MIC against S. pneumoniae R6; conditions: Streptococcus pneumoniae
Method: as §1

In the case of `CCCCCCCN1CC[C@@H](CC(=O)Nc2ccnc3ccc(OC)nc23)[C@@H](CC(N)=O)C1.O=C(O)C(=O)O` [Example 6, [3R,4S]-1-Heptyl-4-N-(6-methoxy-1,5-naphthyridin-4-yl)-3,4-piperidinediacetamide Oxalate], the MIC (some of these organisms) is reported as ≤ 1 µg/mL.
For `C=C[C@H]1CN(CCCCCCC)CC[C@H]1CCN(C)c1ncnc2ccc(OC)cc12` [Example 1, [3R, 4S]-1-Heptyl-4-[N-methyl-N-(6-methoxy-quinazolin-4-yl)-2-aminoethyl]-3-ethenylpiperidine], the MIC (S. aureus WCUH29) was 0.5 µg/mL (≈ 1.18 µM), the MIC (M. catarrhalis Ravasio) was 0.5 µg/mL (≈ 1.18 µM) and the MIC (S. aureus Carter 37) was 0.5 µg/mL (≈ 1.18 µM). It also gave an MIC (E. faecalis I) of 4 µg/mL (≈ 9.42 µM), an MIC (S. aureus Oxford) of 0.5 µg/mL (≈ 1.18 µM) and an MIC (S. pneumoniae R6) of 0.5 µg/mL (≈ 1.18 µM).
For `C=C[C@H]1CN(CCCCCCC)CC[C@H]1CCOc1ncnc2ccc(OC)cc12` [Example 2, [3R, 4S]-1-Heptyl-4-[2-(6-methoxyquinazolin4-oxy)ethyl]-3-ethenylpiperidine], the MIC (S. aureus WCUH29) was 4 µg/mL (≈ 9.72 µM), the MIC (M. catarrhalis Ravasio) was 4 µg/mL (≈ 9.72 µM) and the MIC (S. aureus Carter 37) was 4 µg/mL (≈ 9.72 µM). The MIC (E. faecalis I) was 8 µg/mL (≈ 19.4 µM), the MIC (S. aureus Oxford) was 4 µg/mL (≈ 9.72 µM) and the MIC (S. pneumoniae R6) was 8 µg/mL (≈ 19.4 µM).
With `C=C[C@H]1CN(CCCCCCC)CC[C@H]1CC(O)Cc1ccnc2ccc(OC)nc12` (mixture of isomers) [Example 5, [3R,4S]-1-Heptyl-3-ethenyl-4-[2-(R,S)-hydroxy-3-(6-methoxy-1,5-naphthyridin-4-yl)propyl]piperidine] the MIC (some of these organisms) was ≤ 1 µg/mL.
For `CCCCCCCN1CCC(C(=O)Nc2ccnc3ccc(OC)nc23)CC1` [Example 3, 1-Heptyl-4-(6-methoxy-1,5-naphthyridin-4-yl)aminocarbonyl Piperidine], the MIC (some of these organisms) was ≤ 1 µg/mL.
